In article PMC6152416, “Pharmacological and Toxicological Screening of Novel Benzimidazole-Morpholine Derivatives as Dual-Acting Inhibitors” (Molecules : A Journal of Synthetic Chemistry and Natural …, 2017):
“Also recorded” adds a separate entry of the source. Like-named read-outs stand apart in the source and are kept apart here. Marks after values point to notes of the source that are not given here.

Key:
COX-2 = target: T1, COX-2 (Homo sapiens, UniProt P35354); assay: Fluorimetric COX-2 inhibition screening kit (BioVision); format: biochemical; conditions: for COX-2 inhibition at the initial concentrations: 10^−3 M and 10^−4 M; for inhibition at 10 µM: 10^−5 M; for inhibition at 0.1 µM: 10^−7 M; for inhibition at 0.01 µM: 10^−8 M; for inhibition at 0.001 µM: 10^−9 M; for inhibition at 1 µM: read-out: COX 2 Inhibition %
T1 construct: purchased BioVision (Milpitas, CA, USA) K547-100
T1 sequence (P35354 18-604): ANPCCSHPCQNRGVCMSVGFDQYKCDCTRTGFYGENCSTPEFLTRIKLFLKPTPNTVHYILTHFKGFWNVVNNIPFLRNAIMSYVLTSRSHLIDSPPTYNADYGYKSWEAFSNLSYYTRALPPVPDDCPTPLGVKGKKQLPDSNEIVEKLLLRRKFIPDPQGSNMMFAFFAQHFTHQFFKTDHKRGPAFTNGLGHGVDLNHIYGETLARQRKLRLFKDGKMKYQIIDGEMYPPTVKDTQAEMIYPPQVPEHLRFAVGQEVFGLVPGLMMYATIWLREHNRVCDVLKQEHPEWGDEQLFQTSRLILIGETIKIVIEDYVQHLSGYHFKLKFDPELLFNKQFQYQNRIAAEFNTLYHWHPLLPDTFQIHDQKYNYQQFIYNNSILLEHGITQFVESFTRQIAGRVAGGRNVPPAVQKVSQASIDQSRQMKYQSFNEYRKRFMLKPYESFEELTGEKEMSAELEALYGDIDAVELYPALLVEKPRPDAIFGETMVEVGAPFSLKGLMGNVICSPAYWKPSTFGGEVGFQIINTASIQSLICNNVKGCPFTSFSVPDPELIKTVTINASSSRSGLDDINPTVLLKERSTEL
Procedure: Inhibitory potency of the compounds on COX-1 and COX-2 enzymes was determined by using fluorimetric COX-1 and COX-2 inhibition screening kits from BioVision (Milpitas, CA, USA). The experimental protocol as described in the guides provided by the supplier was followed. All of the pipetting were performed using a robotized system to increase speed, accuracy and precision. Fluorescence intensities of the samples were kinetically measured at 25 °C for 5–10 min by monitoring emissions at 587 nm after excitation at 535 nm. Two appropriate points (T1 and T2) in the linear range of the plot were chosen and the corresponding fluorescence values (RFU1 and RFU2) were obtained. The slope for all samples including Enzyme Control (EC) was calculated by dividing the net ΔRFU (RFU2 − RFU1) values by the time ΔT (T2 − T1). Percentage of relative inhibition was calculated by using the following equation:% Relative inhibition = (Slope of EC − Slope of S/Slope of EC) × 100 where S is the term representing the tested compound [51, 52]. […] The IC50 values were calculated using the plots of the enzyme activity against concentrations by applying regression analyses.

AChE = AChE (Homo sapiens, UniProt P22303); format: biochemical
Chain of AChE (P22303 32-614): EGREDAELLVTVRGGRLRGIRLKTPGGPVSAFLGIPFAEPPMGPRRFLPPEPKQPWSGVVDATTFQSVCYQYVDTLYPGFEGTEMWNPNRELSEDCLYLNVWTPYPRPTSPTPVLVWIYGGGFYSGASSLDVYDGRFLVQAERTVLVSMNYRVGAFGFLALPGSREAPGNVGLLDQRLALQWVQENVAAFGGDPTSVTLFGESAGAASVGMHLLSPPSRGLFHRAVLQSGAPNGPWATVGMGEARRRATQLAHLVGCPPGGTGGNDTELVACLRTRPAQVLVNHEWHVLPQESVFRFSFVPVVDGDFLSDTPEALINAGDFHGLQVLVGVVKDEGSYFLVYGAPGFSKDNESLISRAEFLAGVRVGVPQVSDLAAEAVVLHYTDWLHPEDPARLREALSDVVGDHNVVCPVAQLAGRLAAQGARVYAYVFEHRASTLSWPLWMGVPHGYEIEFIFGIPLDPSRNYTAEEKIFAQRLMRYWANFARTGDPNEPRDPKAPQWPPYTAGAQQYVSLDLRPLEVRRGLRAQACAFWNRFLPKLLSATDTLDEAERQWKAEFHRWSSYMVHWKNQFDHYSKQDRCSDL
Procedure: Inhibition potency of the test compounds against AChE was determined using Ellman’s method. Enzyme solutions were prepared in gelatin solution (1%, w/v), at the concentration of 2.5 units/mL. […] AChE solution (20 µL/well) and test solution (20 µL/well) were added to phosphate buffer solution (140 µL/well, pH 8.0 ± 0.1), and incubated at 25 °C for 5 min. […] The production of the yellow anion was recorded by multimode microplate reader for 10 min at 412 nm. As a control, an identical solution of the enzyme without the inhibitor was processed. The control and the inhibitor readings were corrected with blank-readings. All processes were assayed in four independent determinations.

[1] = tested on: Salmonella typhimurium TA100; assay: Ames MPF genotoxicity assay; format: cell-based; conditions: for Ames MPF mutagenicity classification: TA100, with/without metabolic activation (S9)
Procedure: (§1) The genotoxicity of selected compounds (2b, 2j, 2m) was determined by Ames assay using Ames MPF 98/100 mutagenicity assay sample kit (Xenometrix AG, Allschwil, Switzerland) as previously described elsewhere. Salmonella typhimurium strains, TA98 (frameshift mutations) and TA100 (base-pair substitutions) were used in the assay. The concentration of the compounds was between 16 and 5000 μg/mL, in accordance with the guideline. Compounds were prepared in six different concentrations (5.0, 2.5, 1.25, 0.625, 0.3125, 0.156 mg/mL) in DMSO. Mutagenic potential was determined in the absence or presence of Aroclor™-1254 induced male Sprague–Dawley rat liver microsomal enzyme (S9) mix (Xenometrix AG). Positive controls without S9 mix were 2-nitrofluorene (2.0 μg/mL) and 4-nitroquinoline N-oxide (0.1 μg/mL), whereas 1.0 μg/mL and 2.5 μg/mL of 2-aminoanthracene solutions were used as positive controls with S9 against TA98 and TA100, respectively. Solvent control was prepared with 4% DMSO. The end of an experiment was determined by the change of the indicator medium colour to yellow, which was originating from the decrease of pH due to revertant bacteria. Yellow wells were counted as positive, and compared with the negative control. Fold induction over the negative control and fold induction over the baseline were calculated (Fold induction over the negative control is accepted as the ratio of the mean number of positive wells for the dose concentration divided by the mean number of positive wells for the zero dose (negative) control. Fold induction over the baseline is accepted as the ratio of the mean number of positive wells for the dose concentration divided by zero dose baseline. The zero-dose baseline is obtained by adding one standard deviation to the mean number of positive wells of the zero dose control. If the baseline is less than 1, the value is set to 1 for calculation).
(§2) Mutagenicity was determined according to the criteria reported previously. For a baseline value of ≤3, significant increases between 2 and 3-fold of the baseline were classified as weak mutagen, and increases ≥3-fold of the baseline were classified as mutagen. […] As a rule, at least two adjacent doses with significant increases or a significant increase at the highest dose level should be observed for a mutagenic compound. All of the doses were compared according to Student’s t-test at p < 0.05 for statistical significance.

[2] = tested on: Salmonella typhimurium TA98; assay: Ames MPF genotoxicity assay; format: cell-based; conditions: for Ames MPF mutagenicity classification: TA98, in the presence/absence of metabolic activation (S9)
Procedure: as §1, §2

| SMILES | IC50 (COX-2) | COX-2 Inhibition (%) (COX-2; 10^-3 M) | COX-2 Inhibition (%) (COX-2; 10^-4 M) | COX-2 inhibition at the initial concentrations (COX-2) | inhibition at 10 µM (COX-2) | inhibition at 0.1 µM (COX-2) | inhibition at 0.01 µM (COX-2) | inhibition at 0.001 µM (COX-2) | AChE Inhibition (%) (AChE; 10^-3 M) | AChE Inhibition (%) (AChE; 10^-4 M) | REVERTANTS Fold Increase (over Baseline) ([1]; TA100, S9+, 0.156 mg/mL) | REVERTANTS Fold Increase (over Baseline) ([1]; TA100, S9+, 0.3125 mg/mL) | REVERTANTS Fold Increase (over Baseline) ([1]; TA100, S9+, 0.625 mg/mL) | REVERTANTS Fold Increase (over Baseline) ([1]; TA100, S9+, 1.25 mg/mL) | REVERTANTS Fold Increase (over Baseline) ([1]; TA100, S9+, 2.5 mg/mL) | REVERTANTS Fold Increase (over Baseline) ([1]; TA100, S9+, 5 mg/mL) | REVERTANTS Fold Increase (over Baseline) ([1]; TA100, S9−, 0.156 mg/mL) | REVERTANTS Fold Increase (over Baseline) ([1]; TA100, S9−, 0.3125 mg/mL) | REVERTANTS Fold Increase (over Baseline) ([1]; TA100, S9−, 0.625 mg/mL) | REVERTANTS Fold Increase (over Baseline) ([1]; TA100, S9−, 1.25 mg/mL) | other results |
| --- | --- | --- | --- | --- | --- | --- | --- | --- | --- | --- | --- | --- | --- | --- | --- | --- | --- | --- | --- | --- | --- |
| FC(F)(F)Oc1ccc(-c2nc3ccccc3n2CCN2CCOCC2)cc1 [Compound 2m, 2-(4-Trifluoromethoxyphenyl)-1-[2-(morpholin-4-yl)ethyl]-1H-benzimidazole] | 22.7 µM | 64.22% | 59.67% | more than 50% | 46.1 ± 1.13% | 34.5 ± 0.97% | 28.7 ± 0.83% | 22.3 ± 0.52% | 32.90% | 32.90% | 0.10 | 0.10 | 0.88 | 0.19 | 0.49 | 0.29 | 0.61 | 0.88 | 0.47 | 0.47 | inhibition at 1 µM (COX-2): 41.2 ± 1.05%; REVERTANTS Fold Increase (over Baseline) ([1]; TA100, S9−, 2.5 mg/mL): 0.54; REVERTANTS Fold Increase (over Baseline) ([1]; TA100, S9−, 5 mg/mL): 0.61; Ames MPF mutagenicity classification [1]: non-genotoxic; also recorded: non-mutagenic; REVERTANTS Fold Increase (over Baseline) ([2]; TA98, S9+, 0.156 mg/mL): 0.46; REVERTANTS Fold Increase (over Baseline) ([2]; TA98, S9+, 0.3125 mg/mL): 0.62; REVERTANTS Fold Increase (over Baseline) ([2]; TA98, S9+, 0.625 mg/mL): 0.77; REVERTANTS Fold Increase (over Baseline) ([2]; TA98, S9+, 1.25 mg/mL): 0.46; REVERTANTS Fold Increase (over Baseline) ([2]; TA98, S9+, 2.5 mg/mL): 1.23; REVERTANTS Fold Increase (over Baseline) ([2]; TA98, S9+, 5 mg/mL): 0.31; REVERTANTS Fold Increase (over Baseline) ([2]; TA98, S9−, 0.156 mg/mL): 0.95; REVERTANTS Fold Increase (over Baseline) ([2]; TA98, S9−, 0.3125 mg/mL): 0.70; REVERTANTS Fold Increase (over Baseline) ([2]; TA98, S9−, 0.625 mg/mL): 0.57; REVERTANTS Fold Increase (over Baseline) ([2]; TA98, S9−, 1.25 mg/mL): 1.08 *; REVERTANTS Fold Increase (over Baseline) ([2]; TA98, S9−, 2.5 mg/mL): 0.82; REVERTANTS Fold Increase (over Baseline) ([2]; TA98, S9−, 5 mg/mL): 1.08 *; Ames MPF mutagenicity classification [2]: non-genotoxic; also recorded: non-mutagenic |
| Clc1ccc(-c2nc3ccccc3n2CCN2CCOCC2)cc1 [Compound 2c, 2-(4-Chlorophenyl)-1-[2-(morpholin-4-yl)ethyl]-1H-benzimidazole] |  | 17.85% | 20.99% |  |  |  |  |  | 5.48% | 5.48% |  |  |  |  |  |  |  |  |  |  |  |
| CCOc1ccc(-c2nc3ccccc3n2CCN2CCOCC2)cc1 [Compound 2j, 2-(4-Ethoxyphenyl)-1-[2-(morpholin-4-yl)ethyl]-1H-benzimidazole] | 13.1 µM | 80.66% | 79.23% | more than 50% | 52.5 ± 1.35% | 34 ± 1.06% | 26.9 ± 0.86% | 20.5 ± 0.76% | 7.20% | 7.20% | 0.15 | 0.00 | 0.15 | 0.38 | 0.31 | 0.15 | 0.80 | 1.00 | 0.40 | 0.67 | inhibition at 1 µM (COX-2; 10^−6 M): 43.4 ± 1.27%; REVERTANTS Fold Increase (over Baseline) ([1]; TA100, S9−, 2.5 mg/mL): 0.67 ***; REVERTANTS Fold Increase (over Baseline) ([1]; TA100, S9−, 5 mg/mL): 1.20; Ames MPF mutagenicity classification [1]: non-genotoxic; also recorded: non-mutagenic; REVERTANTS Fold Increase (over Baseline) ([2]; TA98, S9+, 0.156 mg/mL): 0.25; REVERTANTS Fold Increase (over Baseline) ([2]; TA98, S9+, 0.3125 mg/mL): 0.12 *; REVERTANTS Fold Increase (over Baseline) ([2]; TA98, S9+, 0.625 mg/mL): 0.62; REVERTANTS Fold Increase (over Baseline) ([2]; TA98, S9+, 1.25 mg/mL): 0.74; REVERTANTS Fold Increase (over Baseline) ([2]; TA98, S9+, 2.5 mg/mL): 0.12; REVERTANTS Fold Increase (over Baseline) ([2]; TA98, S9+, 5 mg/mL): 0.74 *; REVERTANTS Fold Increase (over Baseline) ([2]; TA98, S9−, 0.156 mg/mL): 0.60; REVERTANTS Fold Increase (over Baseline) ([2]; TA98, S9−, 0.3125 mg/mL): 0.94; REVERTANTS Fold Increase (over Baseline) ([2]; TA98, S9−, 0.625 mg/mL): 0.68; REVERTANTS Fold Increase (over Baseline) ([2]; TA98, S9−, 1.25 mg/mL): 0.60; REVERTANTS Fold Increase (over Baseline) ([2]; TA98, S9−, 2.5 mg/mL): 0.94; REVERTANTS Fold Increase (over Baseline) ([2]; TA98, S9−, 5 mg/mL): 0.09 ***; Ames MPF mutagenicity classification [2]: non-genotoxic; also recorded: non-mutagenic |
| CC(C)c1ccc(-c2nc3ccccc3n2CCN2CCOCC2)cc1 [Compound 2e, 2-(4-Isopropylphenyl)-1-[2-(morpholin-4-yl)ethyl]-1H-benzimidazole] |  | 14.26% | 22.61% |  |  |  |  |  | 17.51% | 17.51% |  |  |  |  |  |  |  |  |  |  |  |
